Test systems include A498; A549; ACHN; CAKI-1; DU-145; HOP-92; KM12; MDA-MB-231; MDA-MB-435; MDA-N; MOLT-4; NCI/ADR-RES; RXF 393; SF-295; UACC-62; EKVX; Malme-3M; OVCAR-5; SN12C; SW-620.
Common to all, as to assay: NCI anticancer screen, dose series, 48 h

The record followed here is ChEMBL document CHEMBL1201862, “PubChem BioAssay data set” (2004).

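The compound was tested at five concentrations on cells cultured in 96-well plates, with a 48-hour exposure period. GI50: concentration for 50% inhibition of growth.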 The source made the active and inactive calls. Rule as the data show it: active = GI50 up to about 1.1 µM and inactive = higher.

For the compound `COc1cc2c(c3c1c(=O)c1ccccc1n3C)C=C([N+](=O)[O-])C(C)(C)O2`, the GI50 with A498 was 0.0253 µM (active); in the test with A549, 0.0247 µM (active); in the test on ACHN, 0.0506 µM (active); in the test on CAKI-1 it was 0.223 µM (active); in the test on DU-145, < 0.0456 µM (active); in the test on HOP-92, 0.431 µM (active). For the same compound, the GI50 with KM12 is > 100 µM (inactive); in the test with MDA-MB-231, 1.08 µM (active); with MDA-MB-435 it was 0.0931 µM (active); in the test with MDA-N, 0.114 µM (active); in the test with MOLT-4, 0.0861 µM (active); with NCI/ADR-RES, 2.09 µM (inactive). Further, the GI50 is 0.132 µM (active) with RXF 393, 0.647 µM (active) with SF-295 and 0.769 µM (active) in the test on UACC-62.
As to `CC(C)(C)OC(=O)C(C#N)C(=O)c1ccc(C(=O)O)[nH]1` (stereo not given), the GI50 in the test on A498 is 20.5 µM (inactive); with A549 it was 35.9 µM (inactive); in the test on ACHN, 32.2 µM (inactive); with CAKI-1 it was 18.8 µM (inactive); in the test on DU-145, 48.2 µM (inactive); in the test with EKVX, 29.2 µM (inactive). For the same compound, the GI50 in the test with HOP-92 was 12 µM (inactive); in the test on KM12 it was 34.8 µM (inactive); in the test with MDA-MB-231 it was 29.4 µM (inactive); with MDA-MB-435, 32.3 µM (inactive); in the test with MDA-N, 40.4 µM (inactive); with MOLT-4, 33.6 µM (inactive). For the same compound, the GI50 in the test on Malme-3M was 35.2 µM (inactive); in the test on NCI/ADR-RES, 12.7 µM (inactive); in the test on OVCAR-5 it was 48.4 µM (inactive); in the test with SF-295, 33.5 µM (inactive); in the test on SN12C, 43.1 µM (inactive); in the test with SW-620, 34.9 µM (inactive). Besides, the GI50 in the test with UACC-62 was 18.3 µM (inactive).
On to `Cc1cc(CCC(=O)NCCNc2c3ccccc3nc3ccccc23)cc(C)c1O[Si](C)(C)C(C)(C)C`, for which the GI50 is 0.525 µM (active) in the test with A498; 0.638 µM (active) with A549; 1.66 µM (inactive) in the test with ACHN; 1.1 µM (active) with DU-145; 1.6 µM (inactive) in the test with EKVX; 1.53 µM (inactive) with HOP-92. The GI50 in the test on KM12 is 0.366 µM (active); in the test on MDA-MB-231, 13.1 µM (inactive); in the test on MDA-MB-435, 0.3 µM (active); in the test with MDA-N, 0.399 µM (active); in the test on MOLT-4, 0.414 µM (active); in the test on Malme-3M, 2.06 µM (inactive). Also, the GI50 was 1.81 µM (inactive) in the test with NCI/ADR-RES; 1.69 µM (inactive) in the test on OVCAR-5; 1.5 µM (inactive) in the test with RXF 393; 0.807 µM (active) in the test with SF-295; 15.5 µM (inactive) in the test with SN12C; 0.215 µM (active) in the test with SW-620. The GI50 with UACC-62 was 14.5 µM (inactive).
With `CC(=O)OC1COC(Nn2c(=O)[nH]c3ccccc3c2=O)C(OC(C)=O)C1OC(C)=O` (stereo not given), the GI50 is > 100 µM (inactive) in the test on A498; > 100 µM (inactive) with A549; > 100 µM (inactive) in the test on ACHN; > 100 µM (inactive) with CAKI-1; > 100 µM (inactive) with DU-145; 36.1 µM (inactive) in the test with EKVX. For the same compound, the GI50 was > 100 µM (inactive) in the test on HOP-92; 39.4 µM (inactive) in the test on KM12; > 100 µM (inactive) in the test on MDA-MB-231; > 100 µM (inactive) with MDA-MB-435; > 100 µM (inactive) with MDA-N; > 100 µM (inactive) with MOLT-4. Moreover, the GI50 is 17.9 µM (inactive) in the test on NCI/ADR-RES; > 100 µM (inactive) in the test with OVCAR-5; > 100 µM (inactive) in the test on SF-295; > 100 µM (inactive) with SN12C; > 100 µM (inactive) in the test with SW-620; > 100 µM (inactive) in the test on UACC-62.
As to `CCOC(=O)/C(C(=O)c1ccc([N+](=O)[O-])cc1)=C(\NS(=O)(=O)c1cc(C)c(Cl)cc1[S-])[n+]1ccc(N(C)C)cc1`, the GI50 with A498 was 21.4 µM (inactive); in the test with A549 it was 38.8 µM (inactive); in the test with ACHN, 30.1 µM (inactive); in the test with CAKI-1, 35.1 µM (inactive); with DU-145, 31 µM (inactive); in the test with HOP-92, 3.27 µM (inactive). The GI50 in the test on KM12 is 27.4 µM (inactive); with MDA-MB-231, 47.9 µM (inactive); in the test on MDA-MB-435 it was 32.8 µM (inactive); in the test with MDA-N, 35.5 µM (inactive); in the test with MOLT-4 it was 32.2 µM (inactive); with Malme-3M, 14.4 µM (inactive). For the same compound, the GI50 in the test on NCI/ADR-RES is 43.1 µM (inactive); in the test on OVCAR-5, 28.8 µM (inactive); in the test with RXF 393, 64.1 µM (inactive); with SF-295 it was 16.7 µM (inactive); in the test on SN12C, 61.7 µM (inactive); in the test with UACC-62, 49.3 µM (inactive).
Take `COc1cc2c(cc1OC)C(C)N(C)c1c-2c(OC(C)=O)cc2cc(OC)c(OC)cc12` (stereo not given): the GI50 in the test on A498 was 10.7 µM (inactive); with A549, 16.9 µM (inactive); in the test with ACHN, 17.3 µM (inactive); in the test with CAKI-1, 16.1 µM (inactive); with DU-145, 16.9 µM (inactive); with EKVX, 13.2 µM (inactive). In addition, the GI50 is 14.2 µM (inactive) in the test on KM12; 5.92 µM (inactive) in the test with MDA-MB-231; 15.8 µM (inactive) in the test on MDA-MB-435; 14.6 µM (inactive) with MDA-N; 5.69 µM (inactive) in the test on MOLT-4; 3.72 µM (inactive) in the test with Malme-3M. Also, the GI50 is 7.48 µM (inactive) in the test with NCI/ADR-RES; 36.4 µM (inactive) in the test with OVCAR-5; 6.12 µM (inactive) in the test with RXF 393; 11.8 µM (inactive) in the test with SF-295; 9.93 µM (inactive) with SN12C; 23.7 µM (inactive) in the test with SW-620. Also, the GI50 in the test with UACC-62 was 12.5 µM (inactive).
Regarding `COC(=O)C#Cc1cccc(OC)c1OC`, the GI50 in the test with A498 was 45 µM (inactive); in the test on A549 it was 37.5 µM (inactive); in the test with ACHN, 60 µM (inactive); in the test on CAKI-1, 28.6 µM (inactive); in the test with DU-145 it was 88.1 µM (inactive); with EKVX it was 19.5 µM (inactive). Also, the GI50 was 25.8 µM (inactive) in the test on HOP-92; 45.4 µM (inactive) in the test on KM12; 62.8 µM (inactive) in the test on MDA-MB-231; 33.7 µM (inactive) in the test on MDA-MB-435; 40.7 µM (inactive) in the test on MDA-N; 14 µM (inactive) in the test with MOLT-4. The GI50 in the test with Malme-3M was 28 µM (inactive); in the test with NCI/ADR-RES, 30.3 µM (inactive); in the test on OVCAR-5, 22.5 µM (inactive); in the test with SF-295, 40.5 µM (inactive); in the test with SN12C it was 48.1 µM (inactive); with SW-620, 47 µM (inactive). Also, the GI50 in the test on UACC-62 is 48.3 µM (inactive).
Take `COc1cccc(N2C(=O)CSC2c2cc(OC)c(OC)c(OC)c2)c1` (stereo not given): the GI50 in the test with A498 is > 100 µM (inactive); in the test with A549, 37.1 µM (inactive); in the test on ACHN it was 57.7 µM (inactive); in the test on CAKI-1 it was 30.8 µM (inactive); in the test with DU-145, 12 µM (inactive); with EKVX it was 49.7 µM (inactive). In addition, the GI50 is > 100 µM (inactive) with HOP-92; 12.2 µM (inactive) in the test on KM12; 69.7 µM (inactive) with MDA-MB-231; 3.85 µM (inactive) with MDA-MB-435; 3.95 µM (inactive) with MDA-N; 29.8 µM (inactive) with MOLT-4. Also, the GI50 in the test with NCI/ADR-RES was 26.5 µM (inactive); in the test on OVCAR-5, 54.8 µM (inactive); in the test with SF-295, 21.8 µM (inactive); in the test on SN12C, 44.1 µM (inactive); with SW-620, 39.7 µM (inactive); in the test on UACC-62, 34.2 µM (inactive).
Consider `C[C@@H]1[C@H](C)N1CC(O)Cn1ccnc1[N+](=O)[O-]` (stereo not given in full), for which the GI50 in the test with A498, in the test with A549, in the test with ACHN, in the test on CAKI-1, in the test with DU-145 and with EKVX was > 100 µM (inactive) throughout. Besides, the GI50 in the test with KM12, in the test with MDA-MB-231, in the test on MDA-MB-435, with MDA-N, in the test on MOLT-4 and in the test on Malme-3M was > 100 µM (inactive) in each case. In addition, the GI50 with NCI/ADR-RES, in the test with OVCAR-5, in the test with RXF 393, in the test with SF-295, with SN12C and in the test with SW-620 was > 100 µM (inactive) each time. Further, in the test on UACC-62, the GI50 is > 100 µM (inactive).
In the case of `COc1ccc(-c2oc3c(CC(=O)O)cccc3c(=O)c2OC)cc1`, the GI50 was > 100 µM (inactive) in the test on A498; > 100 µM (inactive) in the test with A549; > 100 µM (inactive) in the test with ACHN; 21.6 µM (inactive) with CAKI-1; > 100 µM (inactive) in the test on DU-145; > 100 µM (inactive) with EKVX. Also, the GI50 in the test on MDA-MB-231, with MDA-MB-435, in the test with MDA-N, with MOLT-4, with Malme-3M and in the test with NCI/ADR-RES was > 100 µM (inactive) each time. Besides, the GI50 with OVCAR-5, in the test with RXF 393, in the test with SF-295, with SN12C and in the test with UACC-62 was > 100 µM (inactive) in each case.
Consider `CC(=S)NC1C(Oc2ccc3c(C)cc(=O)oc3c2)OC(CO)C(O)C1O` (stereo not given), for which the GI50 in the test on A498, in the test on A549, with ACHN, in the test on CAKI-1, in the test with DU-145 and in the test with EKVX was > 100 µM (inactive) in each case. Besides, the GI50 in the test with HOP-92, in the test on KM12, in the test with MDA-MB-231, with MDA-MB-435, in the test with MDA-N and in the test on MOLT-4 was > 100 µM (inactive) throughout. Besides, the GI50 in the test with NCI/ADR-RES, in the test on OVCAR-5, in the test on RXF 393, with SF-295, in the test on SN12C and in the test on SW-620 was > 100 µM (inactive) each time. The GI50 with UACC-62 is > 100 µM (inactive).
